Measured values from patent publication US20110189308A1, “METHODS TO TREAT NEURODEGENERATIVE CONDITIONS OR DISEASES BY TARGETING COMPONENTS OF A PTEN SIGNALING PATHWAY” (priority 2008, published 2011).

Tested on: primary cortical cultures from (Atg7^flox/flox) mice
Assay: Process length in primary cortical cultures from Atg7 flox/flox mice transfected with Cre plasmid, with PI3K inhibitors
Type: cell-based, mouse
Conditions: FIG. 16D; 10 μM Wortmannin or 50 μM LY294002; n>45 neurons per group; mean±S.E.
Excerpt: FIGS. 16A-16D. Primary midbrain neuronal cultures from autophagy-deficient Dat^Cre/+Atg7^flox/flox mice display prolonged neurites. FIG. 16A, Elongated processes in TH-positive neurons in primary midbrain cultures from autophagy-deficient (Dat^Cre/+Atg7^flox/flox) mice relative to controls (Dat^Cre/+Atg7^flox/wild). FIG. 16B, The elongated process phenotype is also apparent in primary cortical cultures from (Atg7^flox/flox) mice transfected with Cre-recombinase encoding plasmid (along with GFP plasmid) compared to primary neurons transfected with GFP plasmid alone. […] FIG. 16C, Quantitation of process length as in (A). Dat^Cre/+Atg7^flox/wild versus Dat^Cre/+Atg7^flox/flox; 0.933±0.098 mm versus 1.704±0.139 mm, p<0.01. n>49 neurons per group in at least three separate independent experiments. FIG. 16D, quantification of data as in (C). Dat^Cre/+Atg7^flox/wild versus Dat^Cre/+Atg7^flox/flox; 0.428±0.036 mm versus 0.721±0.073 mm (DMSO), 0.198±0.018 mm versus 0.217±0.021 mm (Wortmannin, WM), and 0.158±0.015 mm versus 0.176±0.018 mm (LY294002, LY). n>45 neurons per group in at least three separate independent experiments. Bar, 50 μm.**, P<0.01.
Cell Culture. For midbrain culture, midbrain tissues were dissected from newborn mice (postnatal 0 day). The tissues were minced and digested in isolation medium containing 0.25% trypsin and ascorbic acid at 37° C. for 30 min. After the incubation, the digestion was stopped by 3% fetal bovine serum and 0.25% Dnase I. The tissues were triturated 20 times by glass-pipette and filtrated by cell strainer. They were centrifuged at 1,200 rpm for 5 min, and the supernatants were removed. The cells were suspended in plating medium containing 10% fetal bovine serum and plated on poly-D-lysine and laminin-coated 24-well plates. On the next day, the plating medium was replaced by culture medium containing 1% fetal bovine serum and antimitotic agent. The cells were kept on 37° C. for three more days. For cortical culture, cortical tissues were dissected from newborn mice (postnatal 0 day). The tissues were minced and digested in isolation medium containing 0.25% trypsin at 37° C. for 30 min. After the incubation, the digestion was stopped by 3% fetal bovine serum and 0.25% Dnase I. The tissues were triturated 20 times by glass-pipet and filtrated by cell strainer. They were centrifuged at 1,200 rpm for 5 min, and the supernatants were removed. The cells were suspended in plating medium containing 10% fetal bovine serum and plated on poly-D-lysine and laminin-coated 24-well plates. On second day, the cells were transfected with GFP or Cre expression plasmids. To transfect the plasmids, the cells were washed in 500 μl DMEM and added 30 μl of DNA/Ca/Phosphate complex (2 μg DNA/3.75 μl 1M CaCl2/15 μl 2× HBSS). […]

Structure (SMILES) | process length, Atg7-deficient neurons (Dat^Cre/+Atg7^flox/flox) | process length, control neurons (Dat^Cre/+Atg7^flox/wild)
O=c1cc(N2CCOCC2)oc2c(-c3ccccc3)cccc12 [LY294002] | 0.176±0.018 mm | 0.158±0.015 mm
COC[C@H]1OC(=O)c2coc3c2[C@@]1(C)C1=C(C3=O)[C@@H]2CCC(=O)[C@@]2(C)C[C@H]1OC(C)=O [Wortmannin] | 0.217±0.021 mm | 0.198±0.018 mm
